# According to patent US8642597B2, “Pyrazole compounds for controlling invertebrate pests” (BASF SE, priority 2007, dated 2014):
# Key:
# Assay type in all cases: in vivo
# [1] = system: Green Peach Aphid (Myzus persicae, Mixed Life Stages); experiment: Green peach aphid (Myzus persicae, mixed life stages), pepper leaf dip test; settings: foliar, 120 h, after 5 days, in comparison with untreated controls
# From the text: (§1) The active compounds were formulated in 50:50 (vol:vol) acetone:water and 100 ppm Kinetica™ surfactant.
# Pepper plants in the 2nd leaf-pair stage (variety ‘California Wonder’) were infested with approximately 40 laboratory-reared aphids by placing infested leaf sections on top of the test plants. The leaf sections were removed after 24 hr. The leaves of the intact plants were dipped into gradient solutions of the test compound and allowed to dry. Test plants were maintained under fluorescent light (24 hour photoperiod) at about 25° C. and 20-40% relative humidity. Aphid mortality on the treated plants, relative to mortality on check plants, was determined after 5 days.
# [2] = system: Cotton Aphid (aphis gossypii, Mixed Life Stages); experiment: Cotton aphid (aphis gossypii, mixed life stages), cotyledon dip test; settings: 120 h, mortality counts after 5 days, in comparison with untreated controls
# From the text: as §1
# Cotton plants at the cotyledon stage (one plant per pot) were infested by placing a heavily infested leaf from the main colony on top of each cotyledon. The aphids were allowed to transfer to the host plant overnight, and the leaf used to transfer the aphids was removed. The cotyledons were dipped in the test solution and allowed to dry. After 5 days, mortality counts were made.
# [3] = system: Cowpea Aphid (aphis craccivora); experiment: Cowpea aphid (aphis craccivora), spray on potted cowpea plants; settings: population reduction assessed after 24, 72 and 120 hours, in comparison with untreated controls
# Method: The active compounds were formulated in 50:50 (vol:vol) acetone:water. The test solution was prepared at the day of use.
# Potted cowpea plants colonized with 100-150 aphids of various stages were sprayed after the pest population had been recorded. Population reduction was assessed after 24, 72, and 120 hours.
# [4] = system: Vetch Aphid (Megoura viciae); experiment: Vetch aphid (Megoura viciae), bean leaf disk microtiterplate test; settings: foliar, 144 h, concentration of the test solution 2500 mg/L, 6 days
# Method: The active compounds were formulated in 1:3 (vol:vol) DMSO:water with different concentrations of formulated compounds.
# Bean leaf disks were placed into microtiterplates filled with 0.8% agar-agar and 2.5 ppm OPUS™. The leaf disks were sprayed with 2.5 μl of the test solution and 5 to 8 adult aphids were placed into the microtiterplates which were then closed and kept at 23±1° C. and 50±5% relative humidity under fluorescent light for 6 days. Mortality was assessed on the basis of vital, reproduced aphids. Aphid mortality and fecundity was then visually assessed.
# [5] = system: Boll Weevil (Anthonomus grandis); experiment: Boll weevil (Anthonomus grandis), insect diet microtiter plate test; settings: 120 h, concentration of the test solution 2500 mg/L, egg and larval mortality after 5 days
# Method: The compounds were formulated in 75:25 (vol:vol) water:DMSO.
# For evaluating control of boll weevil (Anthonomus grandis) the test unit consisted of 24-well-microtiter plates containing an insect diet and 20-30 A. grandis eggs. Different concentrations of formulated compounds were sprayed onto the insect diet at 20 μl, using a custom built micro atomizer, at two replications. After application, the microtiter plates were incubated at 23±1° C. and 50±5% relative humidity for 5 days. Egg and larval mortality was then visually assessed.
smiles,measurement,setting,value
CCc1c(C(=O)Nc2cccnc2)cnn1-c1ccc([N+](=O)[O-])cc1 [Compound 144],mortality at 300 ppm,[1],≥ 50%
same,mortality at 300 ppm,[2],≥ 75%
same,mortality at 300 ppm,[3],≥ 75%
same,mortality at 2500 µg/mL,[4],≥ 80%
CCc1c(C(=O)N(C)c2cccnc2)cnn1CC [Compound 185],mortality at 300 ppm,[1],≥ 50%
same,mortality at 300 ppm,[2],≥ 75%
same,mortality at 300 ppm,[3],≥ 75%
same,mortality at 2500 µg/mL,[5],100%
same,mortality at 2500 µg/mL,[4],≥ 80%
CCn1ncc(C(=O)Nc2cccnc2)c1C [Compound 72],mortality at 300 ppm,[2],≥ 75%
same,mortality at 300 ppm,[3],≥ 75%
same,mortality at 2500 µg/mL,[4],≥ 80%
Cc1ccc(S(=O)(=O)N(C(=O)c2cn(C)nc2C(F)(F)F)c2cccnc2)cc1 [Compound 136],mortality at 300 ppm,[1],≥ 50%
same,mortality at 300 ppm,[2],≥ 75%
same,mortality at 300 ppm,[3],≥ 75%
same,mortality at 2500 µg/mL,[4],≥ 80%
CC(C)c1c(C(=O)Nc2cccnc2)cnn1-c1ccccc1 [Compound 120],mortality at 300 ppm,[1],≥ 50%
same,mortality at 300 ppm,[2],≥ 75%
same,mortality at 300 ppm,[3],≥ 75%
same,mortality at 2500 µg/mL,[4],≥ 80%
O=C(Nc1cccnc1)c1cnn(-c2ccc(F)cc2)c1 [Compound 113],mortality at 300 ppm,[3],≥ 75%
CC(C)N(C(=O)c1cn(C)nc1C(F)(F)F)c1cccnc1 [Compound 130],mortality at 300 ppm,[1],≥ 50%
same,mortality at 300 ppm,[2],≥ 75%
same,mortality at 2500 µg/mL,[4],≥ 80%
O=C(Nc1cccnc1)c1cnn(C(F)(F)F)c1 [Compound 205],mortality at 300 ppm,[1],≥ 50%
same,mortality at 300 ppm,[2],≥ 75%
same,mortality at 300 ppm,[3],≥ 75%
same,mortality at 2500 µg/mL,[4],≥ 80%
O=C(Nc1cccnc1)c1cnn(C2CC2)c1 [Compound 119],mortality at 300 ppm,[1],≥ 50%
same,mortality at 300 ppm,[2],≥ 75%
same,mortality at 300 ppm,[3],≥ 75%
same,mortality at 2500 µg/mL,[4],≥ 80%
O=C(Nc1cccnc1)c1cnn(C(F)F)c1C(F)F [Compound 188],mortality at 300 ppm,[1],≥ 50%
same,mortality at 300 ppm,[2],≥ 75%
same,mortality at 300 ppm,[3],≥ 75%
same,mortality at 2500 µg/mL,[5],100%
O=C(Nc1cccnc1)c1cnn(-c2c(F)cccc2F)c1C(F)F [Compound 162],mortality at 2500 µg/mL,[5],100%
same,mortality at 2500 µg/mL,[4],≥ 80%
O=C(Nc1cccnc1)c1cn[nH]c1 [Compound 87],mortality at 300 ppm,[1],≥ 50%
same,mortality at 300 ppm,[2],≥ 75%
same,mortality at 300 ppm,[3],≥ 75%
same,mortality at 2500 µg/mL,[5],100%
same,mortality at 2500 µg/mL,[4],≥ 80%
CCn1ncc(C(=O)N(C)c2cccnc2)c1C(F)(F)F [Compound 186],mortality at 300 ppm,[1],≥ 50%
same,mortality at 300 ppm,[2],≥ 75%
same,mortality at 300 ppm,[3],≥ 75%
same,mortality at 2500 µg/mL,[5],100%
same,mortality at 2500 µg/mL,[4],≥ 80%
O=C(Nc1cccnc1)c1cnn(C(F)F)c1C(F)(F)F [Compound 190],mortality at 300 ppm,[1],≥ 50%
same,mortality at 300 ppm,[2],≥ 75%
same,mortality at 300 ppm,[3],≥ 75%
same,mortality at 2500 µg/mL,[5],100%
same,mortality at 2500 µg/mL,[4],≥ 80%
Cc1cc(C(=O)Nc2cccnc2)nn1C [Compound 10],mortality at 300 ppm,[1],≥ 50%
same,mortality at 300 ppm,[2],≥ 75%
same,mortality at 300 ppm,[3],≥ 75%
Cc1ccccc1-n1ncc(C(=O)Nc2cccnc2)c1C(F)F [Compound 156],mortality at 300 ppm,[1],≥ 50%
same,mortality at 300 ppm,[2],≥ 75%
same,mortality at 300 ppm,[3],≥ 75%
same,mortality at 2500 µg/mL,[5],100%
same,mortality at 2500 µg/mL,[4],≥ 80%
Cc1cc(C(=O)Nc2cccnc2)n(C)n1 [Compound 3],mortality at 300 ppm,[1],≥ 50%
same,mortality at 300 ppm,[2],≥ 75%
same,mortality at 300 ppm,[3],≥ 75%
same,mortality at 2500 µg/mL,[4],≥ 80%
Cn1ncc(C(=O)Nc2cccnc2)c1-c1ccccc1 [Compound 71],mortality at 300 ppm,[1],≥ 50%
same,mortality at 300 ppm,[2],≥ 75%
same,mortality at 2500 µg/mL,[4],≥ 80%
CCCN(C(=O)c1cn(C)nc1C(F)(F)F)c1cccnc1 [Compound 202],mortality at 300 ppm,[1],≥ 50%
same,mortality at 300 ppm,[2],≥ 75%
same,mortality at 300 ppm,[3],≥ 75%
same,mortality at 2500 µg/mL,[4],≥ 80%
CC(C)n1cc(C(=O)Nc2cccnc2)cn1 [Compound 97],mortality at 2500 µg/mL,[4],≥ 80%
O=C(Nc1cccnc1)c1cn(-c2ccc([N+](=O)[O-])cc2)nc1C(F)F [Compound 171],mortality at 2500 µg/mL,[5],100%
COc1ccc(-n2ncc(C(=O)Nc3cccnc3)c2C(F)(F)F)cc1 [Compound 226],mortality at 300 ppm,[1],≥ 50%
same,mortality at 300 ppm,[2],≥ 75%
same,mortality at 2500 µg/mL,[4],≥ 80%
CC(C)c1c(C(=O)Nc2cccnc2)cnn1C [Compound 90],mortality at 300 ppm,[3],≥ 75%
Cc1nn(C)cc1C(=O)Nc1cccnc1 [Compound 70],mortality at 300 ppm,[1],≥ 50%
same,mortality at 300 ppm,[2],≥ 75%
same,mortality at 300 ppm,[3],≥ 75%
Cc1ccc(-n2ncc(C(=O)Nc3cccnc3)c2C(F)F)cc1 [Compound 138],mortality at 300 ppm,[1],≥ 50%
same,mortality at 300 ppm,[2],≥ 75%
same,mortality at 300 ppm,[3],≥ 75%
same,mortality at 2500 µg/mL,[5],100%
same,mortality at 2500 µg/mL,[4],≥ 80%
O=C(Nc1cccnc1)c1cnn(-c2ccc(F)cc2)c1I [Compound 124],mortality at 300 ppm,[1],≥ 50%
same,mortality at 300 ppm,[2],≥ 75%
same,mortality at 300 ppm,[3],≥ 75%
same,mortality at 2500 µg/mL,[4],≥ 80%
CN(C(=O)c1cnn(C(F)F)c1)c1cccnc1 [Compound 222],mortality at 300 ppm,[1],≥ 50%
same,mortality at 300 ppm,[2],≥ 75%
same,mortality at 300 ppm,[3],≥ 75%
O=C(Nc1cccnc1)c1cnn(-c2ccc(Cl)cc2)c1C(F)F [Compound 86],mortality at 300 ppm,[1],≥ 50%
same,mortality at 300 ppm,[2],≥ 75%
same,mortality at 300 ppm,[3],≥ 75%
same,mortality at 2500 µg/mL,[5],100%
O=C(Nc1cccnc1)c1cnn(-c2ccccc2)c1 [Compound 106],mortality at 300 ppm,[3],≥ 75%
same,mortality at 2500 µg/mL,[5],100%
CCn1cc(C(=O)N(C)c2cccnc2)cn1 [Compound 187],mortality at 300 ppm,[1],≥ 50%
same,mortality at 300 ppm,[2],≥ 75%
same,mortality at 300 ppm,[3],≥ 75%
CCn1cc(C(=O)N(C)c2cccnc2)c(C(F)F)n1 [Compound 182],mortality at 300 ppm,[1],≥ 50%
same,mortality at 300 ppm,[2],≥ 75%
same,mortality at 300 ppm,[3],≥ 75%
same,mortality at 2500 µg/mL,[4],≥ 80%
N#CN(C(=O)c1cnn(C(F)F)c1C(F)F)c1cccnc1 [Compound 210],mortality at 300 ppm,[1],≥ 50%
same,mortality at 300 ppm,[2],≥ 75%
same,mortality at 300 ppm,[3],≥ 75%
same,mortality at 2500 µg/mL,[4],≥ 80%
C#CCN(C(=O)c1cn(C)nc1C(F)(F)F)c1cccnc1 [Compound 141],mortality at 300 ppm,[1],≥ 50%
same,mortality at 300 ppm,[2],≥ 75%
same,mortality at 300 ppm,[3],≥ 75%
same,mortality at 2500 µg/mL,[4],≥ 80%
O=C(Nc1cccnc1)c1cnn(Cc2ccc(Cl)cc2)c1 [Compound 81],mortality at 300 ppm,[1],≥ 50%
same,mortality at 300 ppm,[3],≥ 75%
same,mortality at 2500 µg/mL,[5],100%
CCCCCCCn1cc(C(=O)Nc2cccnc2)cn1 [Compound 140],mortality at 300 ppm,[1],≥ 50%
same,mortality at 2500 µg/mL,[4],≥ 80%
Cc1c(C(=O)N(C)c2cccnc2)cnn1C [Compound 178],mortality at 300 ppm,[1],≥ 50%
same,mortality at 300 ppm,[2],≥ 75%
same,mortality at 300 ppm,[3],≥ 75%
CN(C(=O)c1cnn(C)c1)c1cccnc1 [Compound 177],mortality at 300 ppm,[1],≥ 50%
same,mortality at 300 ppm,[2],≥ 75%
same,mortality at 300 ppm,[3],≥ 75%
Cn1ccc(C(=O)Nc2cccnc2)n1 [Compound 1],mortality at 300 ppm,[1],≥ 50%
same,mortality at 300 ppm,[2],≥ 75%
same,mortality at 300 ppm,[3],≥ 75%
CO/N=C(/Nc1cccnc1)c1cn(C)nc1C(F)(F)F [Compound 242],mortality at 300 ppm,[1],≥ 50%
same,mortality at 300 ppm,[2],≥ 75%
same,mortality at 300 ppm,[3],≥ 75%
same,mortality at 2500 µg/mL,[4],≥ 80%
O=C(Nc1cccnc1)c1cnn(-c2cccc([N+](=O)[O-])c2)c1C(F)F [Compound 153],mortality at 2500 µg/mL,[5],100%
same,mortality at 2500 µg/mL,[4],≥ 80%
O=C(Nc1cccnc1)c1cnn(-c2ccccn2)c1 [Compound 105],mortality at 300 ppm,[1],≥ 50%
same,mortality at 300 ppm,[2],≥ 75%
same,mortality at 2500 µg/mL,[5],100%
Cc1c(C(=O)Nc2cccnc2)cnn1C(F)F [Compound 208],mortality at 300 ppm,[1],≥ 50%
same,mortality at 300 ppm,[2],≥ 75%
same,mortality at 300 ppm,[3],≥ 75%
Cc1c(C(=O)Nc2cccnc2)cnn1-c1ccc(F)cc1 [Compound 165],mortality at 300 ppm,[1],≥ 50%
same,mortality at 300 ppm,[2],≥ 75%
same,mortality at 300 ppm,[3],≥ 75%
same,mortality at 2500 µg/mL,[4],≥ 80%
CC(C)n1cc(C(=O)Nc2cccnc2)cn1 [Compound 200],mortality at 300 ppm,[1],≥ 50%
same,mortality at 300 ppm,[2],≥ 75%
same,mortality at 300 ppm,[3],≥ 75%
O=C(Nc1cccnc1)c1cn(C(F)F)nc1C(F)(F)F [Compound 192],mortality at 300 ppm,[1],≥ 50%
same,mortality at 300 ppm,[2],≥ 75%
same,mortality at 300 ppm,[3],≥ 75%
same,mortality at 2500 µg/mL,[5],100%
COc1ccccc1-n1ncc(C(=O)Nc2cccnc2)c1C(F)F [Compound 150],mortality at 300 ppm,[1],≥ 50%
same,mortality at 300 ppm,[2],≥ 75%
same,mortality at 2500 µg/mL,[5],100%
same,mortality at 2500 µg/mL,[4],≥ 80%
